Measured values from patent US20220281848A1, “PYRAZOLE-SUBSTITUTED PYRROLIDINONES AS HERBICIDES” (FMC Corporation, priority 2019, published 2022).

How the values were obtained:
Format in all cases: in vivo
[1] = test system: barnyardgrass (Echinochloa crus-galli, ECHCG); experiment: Test A pre-emergence, barnyardgrass; settings: after 13 d
How it was run: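 Pots of soil sown, sprayed at day 1 post-sowing: test compound at 15.625/62.5/250 g/ha in acetone:water 1:1 + 0.5% Tween 20. Glasshouse 24/16° C., 14 h light, 65% RH, watering twice daily. Readout: % damage after 13 d.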

corn (Zea mays, ZEAMX) = experiment: Test A post-emergence, corn; settings: after 13 d
How it was run: (§1)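 Plants sown in standard soil were grown 8 d in a glasshouse (24/16 °C day/night, 14 h light, 65% humidity), then sprayed with compound in acetone/water (50:50) with 0.5% Tween 20 at 15.625, 62.5 or 250 g/ha. Damage was scored after 13 d (0 = none, 100 = total).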

[2] = test system: barnyardgrass (Echinochloa crus-galli, ECHCG); experiment: Test A post-emergence, barnyardgrass; settings: after 13 d
How it was run: as §1

maize = experiment: Test D pre-emergence, maize seed treated with a herbicide safener; settings: ZEAMX, preemergent, 20 DAA
How it was run: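 Damage was rated visually from 0 (none) to 100 (total), at 20 DAA for pre-emergence and 15 d for post-emergence. Plants grew from safener-treated seed in a glasshouse at 24/18° C. or 20/16° C. day/night, 65% humidity, watered twice daily.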

plants = experiment: Test D post-emergence, other plants of Tables D2 and D4; settings: "Cereals" Postemergent, evaluated after 15 d
Method: A formulation containing 50 g/L of the test chemical was prepared by dissolving the active ingredient in a mixture of organic solvents and emulsifier, details of which are provided in the table. This formulation was then mixed with a small, variable amount of acetone to aid dissolution, before addition of a 0.2% v/v aqueous solution of an adjuvant, as the aqueous diluent, to form an aqueous spray solution which contains a predetermined concentration of the active ingredient.
This aqueous spray solution was then sprayed onto plants including maize and wheat that had been seed treated with a herbicide safener, after one day's cultivation (for pre-emergence) or after about 12 days' cultivation (for post-emergence). The plants were grown from seeds sown in standard soil, placed in a glasshouse under controlled conditions (at 24/18° C. or 20/16° C., day/night; 16 h light; 65% humidity). After spray application the plants were then grown in a glasshouse under the same conditions and watered twice daily. After 15 d for post-emergence and 20 DAA for pre-emergence the test was evaluated (100=total damage to plant; 0=no damage to plant).

SMILES: CN1CC(c2cc(C(F)(F)F)n(C)n2)C(C(=O)Nc2ccc(F)nc2F)C1=O (racemic) [Compound 22]
- damage to plant (100=total damage; 0=no damage) ECHCG ([1]; Pre-Emergence at 15.625 g/ha): 70
- damage to plant (100=total damage; 0=no damage) ECHCG ([1]; Pre-Emergence at 62.5 g/ha): 90
- damage to plant (100=total damage; 0=no damage) ECHCG ([1]; Pre-Emergence at 250 g/ha): 90
- damage to plant (100=total damage; 0=no damage) ZEAMX (corn (Zea mays, ZEAMX); Post-Emergence at 15.625 g/ha): 20
- damage to plant (100=total damage; 0=no damage) ZEAMX (corn (Zea mays, ZEAMX); Post-Emergence at 62.5 g/ha): 40
- damage to plant (100=total damage; 0=no damage) ZEAMX (corn (Zea mays, ZEAMX); Post-Emergence at 250 g/ha): 80
- damage to plant (100=total damage; 0=no damage) ECHCG ([2]; Post-Emergence at 15.625 g/ha): 60
- damage to plant (100=total damage; 0=no damage) ECHCG ([2]; Post-Emergence at 62.5 g/ha): 70
- damage to plant (100=total damage; 0=no damage) ECHCG ([2]; Post-Emergence at 250 g/ha): 80
- damage to plant (100=total damage to plant; 0=no damage to plant), ZEAMX (maize; rate 15): 0
- damage to plant (100=total damage to plant; 0=no damage to plant), ZEAMX (maize; rate 30): 0
- damage to plant (100=total damage to plant; 0=no damage to plant), ZEAMX (maize; rate 60): 0
- damage to plant (100=total damage to plant; 0=no damage to plant), ZEAMX (maize; rate 130): 0
- damage to plant (100=total damage to plant; 0=no damage to plant), ZEAMX (maize; rate 250): 0
- damage to plant (100=total damage to plant; 0=no damage to plant), ZEAMX (maize; rate 500): 0
- ALOMY damage rating (100=total damage to plant; 0=no damage to plant) (plants; Rates 130): 0
- ALOMY damage rating (100=total damage to plant; 0=no damage to plant) (plants; Rates 250): 0
- ALOMY damage rating (100=total damage to plant; 0=no damage to plant) (plants; Rates 500): 10
- AVEFA damage rating (100=total damage to plant; 0=no damage to plant) (plants; Rates 130): 0
- AVEFA damage rating (100=total damage to plant; 0=no damage to plant) (plants; Rates 250): 0
- AVEFA damage rating (100=total damage to plant; 0=no damage to plant) (plants; Rates 500): 10
- BEAVA damage rating (100=total damage to plant; 0=no damage to plant) (plants; Rates 130): 0
- BEAVA damage rating (100=total damage to plant; 0=no damage to plant) (plants; Rates 250): 0
- BEAVA damage rating (100=total damage to plant; 0=no damage to plant) (plants; Rates 500): 10
- BROTE damage rating (100=total damage to plant; 0=no damage to plant) (plants; Rates 130): 0
- BROTE damage rating (100=total damage to plant; 0=no damage to plant) (plants; Rates 250): 0
- BROTE damage rating (100=total damage to plant; 0=no damage to plant) (plants; Rates 500): 0
- BRSNN damage rating (100=total damage to plant; 0=no damage to plant) (plants; Rates 130): 10
- BRSNN damage rating (100=total damage to plant; 0=no damage to plant) (plants; Rates 250): 10
- BRSNN damage rating (100=total damage to plant; 0=no damage to plant) (plants; Rates 500): 10
- CHEAL damage rating (100=total damage to plant; 0=no damage to plant) (plants; Rates 130): 0
- CHEAL damage rating (100=total damage to plant; 0=no damage to plant) (plants; Rates 250): 20
- CHEAL damage rating (100=total damage to plant; 0=no damage to plant) (plants; Rates 500): 30
- GALAP damage rating (100=total damage to plant; 0=no damage to plant) (plants; Rates 130): 0
- GALAP damage rating (100=total damage to plant; 0=no damage to plant) (plants; Rates 250): 40
- GALAP damage rating (100=total damage to plant; 0=no damage to plant) (plants; Rates 500): 10
- HORVW damage rating (100=total damage to plant; 0=no damage to plant) (plants; Rates 130): 0
- HORVW damage rating (100=total damage to plant; 0=no damage to plant) (plants; Rates 250): 10
- HORVW damage rating (100=total damage to plant; 0=no damage to plant) (plants; Rates 500): 20
- KCHSC damage rating (100=total damage to plant; 0=no damage to plant) (plants; Rates 130): 0
- KCHSC damage rating (100=total damage to plant; 0=no damage to plant) (plants; Rates 250): 0
- KCHSC damage rating (100=total damage to plant; 0=no damage to plant) (plants; Rates 500): 0
- LOLPE damage rating (100=total damage to plant; 0=no damage to plant) (plants; Rates 130): 0
- LOLPE damage rating (100=total damage to plant; 0=no damage to plant) (plants; Rates 250): 0
- LOLPE damage rating (100=total damage to plant; 0=no damage to plant) (plants; Rates 500): 0
- POAAN damage rating (100=total damage to plant; 0=no damage to plant) (plants; Rates 130): 0
- POAAN damage rating (100=total damage to plant; 0=no damage to plant) (plants; Rates 250): 0
- POAAN damage rating (100=total damage to plant; 0=no damage to plant) (plants; Rates 500): 0
- POLCO damage rating (100=total damage to plant; 0=no damage to plant) (plants; Rates 130): 0
- POLCO damage rating (100=total damage to plant; 0=no damage to plant) (plants; Rates 250): 0
- POLCO damage rating (100=total damage to plant; 0=no damage to plant) (plants; Rates 500): 10
